Experiments:
hT1R2/R3 = target: T1, hT1R2/R3 (Homo sapiens, UniProt Q7RTX0+Q8TE23); test: Screening for sweet enhancers: FLIPR calcium assay in hT1R2/R3-mammalian Gal5 cells, leftward shift of sweetener EC50; format: cell-based; conditions: for EC50 Ratio, Sucralose Enhancement / EC50 Ratio, Sucrose Enhancement: compound at 10 μM; for EC50 Ratio, Sucralose Enhancement: sweetener sucralose; for EC50 Ratio, Sucrose Enhancement: sweetener sucrose
T1 construct: expressed in transfected cells; host or cells: 'hT1R2/R3-mammalian Gal5 cells'
T1 sequence (Q8TE23 20-839): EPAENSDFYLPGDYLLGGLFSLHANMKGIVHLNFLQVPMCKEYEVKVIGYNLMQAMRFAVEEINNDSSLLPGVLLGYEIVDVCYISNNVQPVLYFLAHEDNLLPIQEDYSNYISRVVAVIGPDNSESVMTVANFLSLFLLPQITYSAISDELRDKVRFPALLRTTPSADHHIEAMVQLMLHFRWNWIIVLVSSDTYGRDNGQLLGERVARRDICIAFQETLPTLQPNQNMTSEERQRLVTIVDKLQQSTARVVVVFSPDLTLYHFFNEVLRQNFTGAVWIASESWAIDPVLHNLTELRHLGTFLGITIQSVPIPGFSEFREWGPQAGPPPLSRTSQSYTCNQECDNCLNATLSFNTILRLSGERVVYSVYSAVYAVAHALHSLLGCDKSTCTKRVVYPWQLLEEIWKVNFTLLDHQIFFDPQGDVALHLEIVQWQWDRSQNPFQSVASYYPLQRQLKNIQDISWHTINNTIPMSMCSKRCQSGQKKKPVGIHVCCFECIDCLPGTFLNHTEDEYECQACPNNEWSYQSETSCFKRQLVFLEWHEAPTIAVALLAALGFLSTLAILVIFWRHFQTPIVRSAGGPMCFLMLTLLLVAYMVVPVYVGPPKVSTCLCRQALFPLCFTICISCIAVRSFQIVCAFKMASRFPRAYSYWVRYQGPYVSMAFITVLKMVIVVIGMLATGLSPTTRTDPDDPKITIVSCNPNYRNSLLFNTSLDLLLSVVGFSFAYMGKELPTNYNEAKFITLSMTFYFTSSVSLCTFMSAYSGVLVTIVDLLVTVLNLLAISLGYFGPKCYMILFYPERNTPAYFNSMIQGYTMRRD
T1 sequence (Q7RTX0 21-852): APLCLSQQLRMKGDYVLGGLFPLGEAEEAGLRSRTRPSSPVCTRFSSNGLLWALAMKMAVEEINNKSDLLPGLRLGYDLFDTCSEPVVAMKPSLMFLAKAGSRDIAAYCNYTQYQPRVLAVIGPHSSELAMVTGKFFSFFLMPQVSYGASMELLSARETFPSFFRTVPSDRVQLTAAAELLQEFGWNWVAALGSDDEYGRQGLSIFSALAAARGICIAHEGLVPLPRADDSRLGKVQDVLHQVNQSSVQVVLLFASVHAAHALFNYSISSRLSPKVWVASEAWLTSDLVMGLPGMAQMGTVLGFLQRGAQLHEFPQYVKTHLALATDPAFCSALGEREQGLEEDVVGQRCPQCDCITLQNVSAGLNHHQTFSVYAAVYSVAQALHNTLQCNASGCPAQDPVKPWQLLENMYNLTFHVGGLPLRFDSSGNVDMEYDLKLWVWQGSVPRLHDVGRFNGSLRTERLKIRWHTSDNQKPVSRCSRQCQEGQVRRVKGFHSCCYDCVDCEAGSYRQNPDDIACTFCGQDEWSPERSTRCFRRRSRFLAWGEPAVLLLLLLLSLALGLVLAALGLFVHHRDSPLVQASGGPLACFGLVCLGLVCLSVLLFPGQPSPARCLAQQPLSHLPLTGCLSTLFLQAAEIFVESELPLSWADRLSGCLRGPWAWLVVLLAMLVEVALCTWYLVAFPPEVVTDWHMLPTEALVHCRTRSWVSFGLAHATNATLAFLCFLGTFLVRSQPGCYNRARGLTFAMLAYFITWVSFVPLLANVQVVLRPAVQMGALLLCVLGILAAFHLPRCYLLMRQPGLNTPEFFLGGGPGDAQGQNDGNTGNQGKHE
Protocol: hT1R2/R3-mammalian Gal5 cells were seeded in 384-well-clear bottom plates (Fisher) at a density of ˜32,000 cells/well and grown overnight. On the day of the experiment, hT1R2/R3-mammalian Gal5 were loaded with the calcium indicator Fluo3AM ([…]) (Invitrogen, Carlsbad, Calif.) in D-PBS (Invitrogen, Carlsbad, Calif.) using a Multidrop. Cells were incubated for 1 hour at room temperature and excess dye was washed out with D-PBS using an EMBLA cell washer (Molecular Devices, Sunnyvale, Calif.), leaving a residual volume of […]. Sweeteners and test compounds were prepared at 4× final concentration and mixed 1:1 in a 384-well Greiner plate (bringing the sweeteners and test compounds concentrations down to 2× final concentration). After 30 minutes of rest time at room temperature, Fluo3AM-loaded cell plates, and the sweetener/compound plate mixture were loaded into a Fluorometric Imaging Plate Reader (FLIPR) (Molecular Devices, Sunnyvale, Calif.). Imaging was performed using a 480 nm excitation and a 535 emission and was initiated with the acquisition of the baseline fluorescence for a period of 7 seconds. Then, the cells were stimulated on line with addition of […] stimuli/well. Subsequent images were acquired every other second for a period of 2 minutes. Raw fluorescence counts were then normalized in each well (using custom made data import software) by calculating delta F/f values (maximum fluorescent count obtained after stimulation−minimal fluorescent count obtained before stimulation/minimal fluorescent count obtained before stimulation). EC50s were determined using a non-linear regression algorithm (GraphPad PRISM, San Diego, Calif.), where the Hill slope, bottom asymptotes and top asymptotes were allow to vary. Enhancement properties of test compounds were quantified by determining the magnitude of the leftward shift in the sweeteners EC50 values (or an EC50 ratio): the value of the EC50 measured in the absence of the enhancer divided by the value of the EC50 measured in the presence of the enhancer).
The present compounds have been tested and shown sweet taste enhancing activities for sucrose, sucralose, and/or fructose as shown in Table E (EC50 ratio for sucrose at about 10 μM), Table F (EC50 ratio for sucralose at about 10 μM), and Table H (EC50 ratio for fructose at about 50 µM). […] The compounds listed in Tables E, F and H are Examples described above. For example, Compound C6 listed in Tables E and F is Example 18 described above.

melting point [°C]	SMILES	other results
189 to 193	CCC(=O)NC(C)(C)COc1cccc2nc(C)c(C(=O)O)c(N)c12 [Example 8, 4-amino-2-methyl-5-(2-methyl-2-propionamidopropoxy)quinoline-3-carboxylic acid]	
	Cc1nc2cccc(OCC(C)(C)NC(=O)CC(C)C)c2c(N)c1C(=O)O [Compound O5]	EC50 Ratio, Sucralose Enhancement (hT1R2/R3): 4.3; EC50 Ratio, Sucrose Enhancement (hT1R2/R3): 6.0; EC50 Ratio, Fructose Enhancement (hT1R2/R3; compound at 50 μM, sweetener fructose): 2.6
195 to 199	CCCCNC(=O)C(C)(C)COc1cccc2nc(C)c(C(=O)O)c(N)c12 [Example 15, 4-amino-5-(3-(butylamino)-2,2-dimethyl-3-oxopropoxy)-2-methylquinoline-3-carboxylic acid]	
184 to 186	Cc1nc2cccc(OC3CCN(C(=O)C(C)C)CC3)c2c(N)c1C(=O)O [Example 10, 4-amino-5-((1-isobutyrylpiperidin-4-yl)oxy)-2-methylquinoline-3-carboxylic acid]	
195 to 198	CNC(=O)[C@H]1CC[C@H](Oc2cccc3nc(C)c(C(=O)O)c(N)c23)CC1 [Example 22, 4-amino-2-methyl-5-(((1,4)-trans-4-(methylcarbamoyl)cyclohexyl)oxy)quinoline-3-carboxylic acid]	
170 to 172	Cc1nc2cccc(OCC(C)(C)C(=O)NCC3CCC3)c2c(N)c1C(=O)O [Example 19, 4-amino-5-(3-((cyclobutylmethyl)amino)-2,2-dimethyl-3-oxopropoxy)-2-methylquinoline-3-carboxylic acid]	
176 to 179	Cc1nc2cccc(OCC(C)(C)C(=O)NCC(C)C)c2c(N)c1C(=O)O [Compound C6, 4-amino-5-(3-(isobutylamino)-2,2-dimethyl-3-oxopropoxy)-2-methylquino-line-3-carboxylic acid]	EC50 Ratio, Sucralose Enhancement (hT1R2/R3): 3.8; EC50 Ratio, Sucrose Enhancement (hT1R2/R3): 11.0
168 to 170	CCNC(=O)C(C)(C)COc1cccc2nc(C)c(C(=O)O)c(N)c12 [Example 12, 4-amino-5-(3-(ethylamino)-2,2-dimethyl-3-oxopropoxy)-2-methylquinoline-3-carboxylic acid]	
227 to 229	Cc1nc2cccc(OCC(C)(C)C(=O)NC3CC3)c2c(N)c1C(=O)O [Example 2, 4-amino-5-(3-(cyclopropylamino)-2,2-dimethyl-3-oxopropoxy)-2-methyl-quinoline-3-carboxylic acid]	
184 to 186	Cc1nc2cccc(OCC(C)(C)NC(=O)C(C)C)c2c(N)c1C(=O)O [Example 6, 4-amino-5-(2-isobutyramido-2-methylpropoxy)-2-methylquinoline-3-carboxylic acid]	
183 to 185	Cc1nc2cccc(O[C@H]3CC[C@H](NC(=O)C(C)C)CC3)c2c(N)c1C(=O)O [Example 4, 4-amino-5-(((1,4)-trans-4-isobutyramidocyclohexyl)oxy)-2-methylquinoline-3-carboxylic acid]	
172 to 174	CCC(CC)NC(=O)C(C)(C)COc1cccc2nc(C)c(C(=O)O)c(N)c12 [Example 16, 4-amino-5-(2,2-dimethyl-3-oxo-3-(pentan-3-ylamino)propoxy)-2-methyl-quinoline-3-carboxylic acid]	
177 to 179	Cc1nc2cccc(OCC(C)(C)C(=O)NCC3CC3)c2c(N)c1C(=O)O [Example 14, 4-amino-5-(3-((cyclopropylmethyl)amino)-2,2-dimethyl-3-oxopropoxy)-2-methylquinoline-3-carboxylic acid]	
186 to 190	Cc1nc2cccc(OCC(C)(C)NC(=O)C3CCC3)c2c(N)c1C(=O)O [Example 9, 4-amino-5-(2-(cyclobutanecarboxamido)-2-methylpropoxy)-2-methylquino-line-3-carboxylic acid]	
195 to 198	Cc1nc2cccc(OCC(C)(C)NC(=O)CC(C)C)c2c(N)c1C(=O)O [Example 5, 4-amino-2-methyl-5-(2-methyl-2-(3-methylbutanamido)propoxy)quinoline-3-carboxylic acid]	
168 to 170	CCC(=O)N1CCC(COc2cccc3nc(C)c(C(=O)O)c(N)c23)CC1 [Example 21, 4-amino-2-methyl-5-((1-propionylpiperidin-4-yl)methoxy)quinoline-3-carboxylic acid]	
173 to 175	Cc1nc2cccc(OCC(C)(C)NC(=O)CN3CCOCC3)c2c(N)c1C(=O)O [Example 17, 4-amino-2-methyl-5-(2-methyl-2-(2-morpholinoacetamido)propoxy)quinoline-3-carboxylic acid]	
175 to 178	Cc1nc2cccc(OCC(C)(C)NC(=O)CC3CCOCC3)c2c(N)c1C(=O)O [Example 13, 4-amino-2-methyl-5-(2-methyl-2-(2-(tetrahydro-2H-pyran-4-yl)acetamido)-propoxy)quinoline-3-carboxylic acid]	
183 to 187	Cc1nc2cccc(OCC(C)(C)C(=O)NC3CCC3)c2c(N)c1C(=O)O [Example 3, 4-amino-5-(3-(cyclobutylamino)-2,2-dimethyl-3-oxopropoxy)-2-methylquino-line-3-carboxylic acid]	
170 to 173	Cc1nc2cccc(OCC(C)(C)NC(=O)C3CCOCC3)c2c(N)c1C(=O)O [Example 7, 4-amino-2-methyl-5-(2-methyl-2-(tetrahydro-2H-pyran-4-carboxamido)-propoxy)quinoline-3-carboxylic acid]	
